Key:
Assay type in all cases: in vivo
Plutella xylostella = test: Pesticidal test against Plutella xylostella (cabbage leaf immersion); settings: 144 h, 3-stage larvae on treated cabbage leaf, 25° C., after 6 days, read-out: pesticidal rate
Experimental: (§1) Pesticidal Test Against Plutella xylostella A piece of a cabbage leaf was immersed for 30 seconds in a chemical solution in which a test compound had been diluted at a predetermined concentration, and air-dried, and then put into a 7 cm polyethylene cup having a filter paper laid on the bottom thereof, and 3-stage larvae of Plutella xylostella were released. They were left to stand in a thermostatic chamber at 25° C., and the numbers of the living pests and the dead pests were examined after 6 days. The test was carried out with five larvae per group in two replicates.

Musca domestica = test: Pesticidal test against Musca domestica (petri dish residue); settings: 24 h, acetone solution dried in petri dish, female adults, 25° C., after 1 day, read-out: pesticidal rate
Experimental: Pesticidal Test Against Musca domestica
1 ml of an acetone solution in which a test compound had been diluted at a predetermined concentration was added dropwise to a petri dish having a diameter of 9 cm, and air-dried, and then the female adults of Musca domestica were released and the petri dish was capped. They were left to stand in a thermostatic chamber at 25° C., and the numbers of the living pests and the dead pests were examined after 1 day. The test was carried out with […] in two replicates.

Spodoptera litura [1] = test: Pesticidal test against Spodoptera litura (cabbage leaf immersion); settings: 144 h, 2-stage larvae on treated cabbage leaf, 25° C., after 6 days, read-out: pesticidal rate
Experimental: as §1, with “Spodoptera litura” for “Plutella xylostella”, “2-stage” for “3-stage”

Spodoptera litura [2] = test: Pesticidal test of penetration migration against Spodoptera litura (radish seedling root immersion); settings: 72 h, radish seedling root immersed 2 days, leaf fed to 2-stage larvae, 25° C., after 3 days, read-out: pesticidal rate
Experimental: Pesticidal Test of Penetration Migration against Spodoptera litura A root portion of a radish seedling was immersed for 2 days in a chemical solution in which a test compound had been diluted at a predetermined concentration, then the leaf was cut and put into a 7 cm polyethylene cup having a filter paper laid on the bottom thereof, and 2-stage larvae of Spodoptera litura were released. They were left to stand in a thermostatic chamber at 25° C., and the numbers of the living pests and the dead pests were examined after 3 days. The test was carried out with five larvae per group in two replicates.

CNC(=O)CCN(C(=O)c1ccccc1)c1cccc(C(=O)Nc2c(I)cc(C(F)(C(F)(F)F)C(F)(F)F)cc2C(F)(F)F)c1 [5-86, N-(3-(2-iodo-4-(perfluoropropan-2-yl)-6-(trifluoromethyl)phenylcarbamoyl)phenyl)-N-(3-(methylamino)-3-oxopropyl)benzamide]
≥ 70%: pest or weed control at 100 ppm (Plutella xylostella) | pest or weed control at 1000 ppm (Musca domestica) | pest or weed control at 100 ppm (Spodoptera litura [1]) | pest or weed control at 1 ppm (Spodoptera litura [2])

N#Cc1ccc(C(=O)N(CCC(N)=O)c2cccc(C(=O)Nc3c(Br)cc(C(F)(C(F)(F)F)C(F)(F)F)cc3C(F)(F)F)c2F)cc1 [1-136, 3-(N-(3-amino-3-oxopropyl)-4-cyanobenzamide)-N-(2-bromo-4-(perfluoropropan-2-yl)-6-(trifluoromethyl)phenyl)-2-fluorobenzamide]
≥ 70%: pest or weed control at 100 ppm (Plutella xylostella) | pest or weed control at 1000 ppm (Musca domestica) | pest or weed control at 100 ppm (Spodoptera litura [1]) | pest or weed control at 1 ppm (Spodoptera litura [2])
